The text below walks through data of EP0373994A1, “Mutants of simian transforming growth factor-beta 1” (ONCOGEN LIMITED PARTNERSHIP, priority 1988, dated 1990).

The subject of assay [1] is TGF-β1 secretion by CHO cell line TGF-β3-2000 clone 17. In words: Secretion of TGF-β1 by transfected CHO cells treated with glycosylation inhibitors (pulse-chase, densitometry). Format: cell-based, Chinese hamster.
The test system of assay [2] is proteolytic processing of TGF-β1 precursor in TGF-β3-2000 clone 17 CHO cells. Briefly: Proteolytic processing of TGF-β1 precursor in CHO cells treated with weak bases or ionophore. It counts as cell-based, Chinese hamster.
For assay [3], the target named is T1, CHO cells overexpressing the human IGF-II/man6P receptor (Homo sapiens, UniProt P11717).
T1 construct: expressed in transfected cells; host or cells: CHO cells
T1 sequence (P11717 41-2491): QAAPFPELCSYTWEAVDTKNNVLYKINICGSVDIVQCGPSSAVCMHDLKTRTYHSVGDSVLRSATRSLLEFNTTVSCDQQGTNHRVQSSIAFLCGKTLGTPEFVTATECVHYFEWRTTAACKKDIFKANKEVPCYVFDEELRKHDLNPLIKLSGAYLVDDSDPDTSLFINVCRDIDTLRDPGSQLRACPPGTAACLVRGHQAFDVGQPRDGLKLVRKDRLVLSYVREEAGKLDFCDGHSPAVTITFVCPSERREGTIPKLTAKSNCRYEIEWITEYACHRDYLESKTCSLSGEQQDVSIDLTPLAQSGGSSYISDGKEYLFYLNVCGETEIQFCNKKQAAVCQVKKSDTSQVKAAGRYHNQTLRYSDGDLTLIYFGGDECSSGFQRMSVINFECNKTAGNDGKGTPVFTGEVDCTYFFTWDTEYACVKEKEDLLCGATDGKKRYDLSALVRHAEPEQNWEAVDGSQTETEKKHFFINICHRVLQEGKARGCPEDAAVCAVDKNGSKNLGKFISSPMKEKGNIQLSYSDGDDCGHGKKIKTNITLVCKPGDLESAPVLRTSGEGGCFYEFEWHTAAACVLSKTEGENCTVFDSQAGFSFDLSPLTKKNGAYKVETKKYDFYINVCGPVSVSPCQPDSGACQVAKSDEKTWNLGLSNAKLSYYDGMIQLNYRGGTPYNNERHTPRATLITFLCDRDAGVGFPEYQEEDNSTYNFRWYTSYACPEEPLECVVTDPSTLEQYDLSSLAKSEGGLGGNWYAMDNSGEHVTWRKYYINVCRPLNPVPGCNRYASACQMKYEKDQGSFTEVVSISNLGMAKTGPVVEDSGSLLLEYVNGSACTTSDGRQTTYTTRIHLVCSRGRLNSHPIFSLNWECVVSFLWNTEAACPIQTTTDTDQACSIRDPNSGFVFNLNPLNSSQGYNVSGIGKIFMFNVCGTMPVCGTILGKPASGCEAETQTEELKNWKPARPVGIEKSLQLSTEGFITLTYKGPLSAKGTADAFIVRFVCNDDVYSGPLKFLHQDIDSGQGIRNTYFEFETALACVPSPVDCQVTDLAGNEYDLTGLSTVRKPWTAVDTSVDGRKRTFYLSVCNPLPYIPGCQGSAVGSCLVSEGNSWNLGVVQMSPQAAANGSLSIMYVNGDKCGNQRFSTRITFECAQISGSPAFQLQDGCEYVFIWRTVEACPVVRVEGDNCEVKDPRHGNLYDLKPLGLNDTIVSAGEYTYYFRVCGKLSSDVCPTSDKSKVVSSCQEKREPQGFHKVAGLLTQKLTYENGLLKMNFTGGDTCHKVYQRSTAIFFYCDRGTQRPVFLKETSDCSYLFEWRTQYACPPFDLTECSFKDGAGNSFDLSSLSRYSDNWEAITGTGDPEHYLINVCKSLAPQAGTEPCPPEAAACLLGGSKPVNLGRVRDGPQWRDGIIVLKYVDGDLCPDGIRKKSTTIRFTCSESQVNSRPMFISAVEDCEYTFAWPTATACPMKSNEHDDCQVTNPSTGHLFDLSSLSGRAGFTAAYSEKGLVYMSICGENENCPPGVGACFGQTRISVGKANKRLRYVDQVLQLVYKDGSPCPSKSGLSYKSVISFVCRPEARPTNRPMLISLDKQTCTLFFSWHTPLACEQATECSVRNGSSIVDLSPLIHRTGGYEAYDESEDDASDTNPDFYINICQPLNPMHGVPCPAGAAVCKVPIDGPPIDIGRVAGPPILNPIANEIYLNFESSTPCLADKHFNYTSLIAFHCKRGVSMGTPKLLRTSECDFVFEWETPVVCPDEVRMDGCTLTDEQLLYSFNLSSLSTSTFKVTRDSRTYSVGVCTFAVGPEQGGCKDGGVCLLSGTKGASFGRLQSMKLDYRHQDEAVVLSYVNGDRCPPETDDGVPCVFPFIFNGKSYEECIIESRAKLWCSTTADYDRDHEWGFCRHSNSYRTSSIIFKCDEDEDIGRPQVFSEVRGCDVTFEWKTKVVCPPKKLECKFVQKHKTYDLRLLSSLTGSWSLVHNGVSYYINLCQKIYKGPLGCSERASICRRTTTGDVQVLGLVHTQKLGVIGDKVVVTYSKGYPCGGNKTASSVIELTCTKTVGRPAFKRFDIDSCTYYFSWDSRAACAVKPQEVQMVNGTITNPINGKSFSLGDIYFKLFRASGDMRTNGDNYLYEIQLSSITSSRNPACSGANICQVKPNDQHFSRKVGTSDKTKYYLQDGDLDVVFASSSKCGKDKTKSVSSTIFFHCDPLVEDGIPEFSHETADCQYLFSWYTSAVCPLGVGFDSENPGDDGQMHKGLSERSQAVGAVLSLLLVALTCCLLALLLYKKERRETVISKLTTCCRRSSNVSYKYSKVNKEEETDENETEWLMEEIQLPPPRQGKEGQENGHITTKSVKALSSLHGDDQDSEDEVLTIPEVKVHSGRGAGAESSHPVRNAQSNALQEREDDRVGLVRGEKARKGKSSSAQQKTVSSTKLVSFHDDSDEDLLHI
In words: Binding to CHO cells overexpressing the receptor. The method, then:
Binding and internalization studies with transfected and control CHO cells were performed in 24-well culture plates. Confluent cells were washed and incubated for 5 hours at 4°C with the labeled ligand in 0.3 ml of binding buffer (100 mM Hepes, pH 7.6, 120 mM NaCl, 1.2 mM MgSO₄, 15 mM sodium acetate, 5 mM glucose). Cells were then washed twice, lysed with 0.1% sodium docecyl sulfate and counted. For the internalization studies, labeled ligand was added to the cells in serum-free Ham's F-12 medium containing 0.1% bovine serum albumin and 20 mM Hepes, pH 7.6. After the indicated periods of time at 37°C, the cells were put on ice and washed with pre-cooled Hepes buffered saline containing 0.3 mM CaCl₂. […] The cells were then washed, solubilized, and counted as above.

The target of assay [4] is human mannose 6-phosphate/IGF-II receptor (Homo sapiens, UniProt P11717). Briefly: Solid phase receptor assay, binding of 125I-TGF-β1 precursor to purified receptor.
human mannose 6-phosphate/IGF-II receptor, sequence (P11717 41-2491): as above
Assay [5] has as its target T2, IGF-II/man6P receptor on adipocytes (Rattus norvegicus, UniProt G3V824).
T2 construct: from tissue; host or cells: primary adipocytes from epididymal fat pads of male Sprague-Dawley rats
Briefly: Binding to rat adipocytes with or without insulin pretreatment. Particulars: 3mM, read-out: inhibition of TGF-β1 precursor binding. How it is done:
The epididymal fat pads from male Sprague-Dawley rats (180-220 g) were excised, minced, and collagenase-digested as described (Rodberg, 1964, J. Biol. Chem. 239:375-380). The isolated adipocytes were pre-incubated with or without 1 µM insulin for 10 min at 37°C in 0.7 ml Krebs-Ringer buffer (107 mM NaCl, 5mM KCl, 3mM CaCl₂, 1mM MgSO₄, 7 mM NaHCO₃, 10 mM glucose, and 20 mM Hepes, pH 7.8) with 3% bovine serum albumin. The indicated labeled ligand was added and the incubations continued for 45 minutes at 37°. The cells were separated from the media by centrifugation through silicon oil and the radioactivity in the cell layer counted.

Read-outs that look alike come from different tables or passages of the source.

T2 sequence (G3V824 36-2481): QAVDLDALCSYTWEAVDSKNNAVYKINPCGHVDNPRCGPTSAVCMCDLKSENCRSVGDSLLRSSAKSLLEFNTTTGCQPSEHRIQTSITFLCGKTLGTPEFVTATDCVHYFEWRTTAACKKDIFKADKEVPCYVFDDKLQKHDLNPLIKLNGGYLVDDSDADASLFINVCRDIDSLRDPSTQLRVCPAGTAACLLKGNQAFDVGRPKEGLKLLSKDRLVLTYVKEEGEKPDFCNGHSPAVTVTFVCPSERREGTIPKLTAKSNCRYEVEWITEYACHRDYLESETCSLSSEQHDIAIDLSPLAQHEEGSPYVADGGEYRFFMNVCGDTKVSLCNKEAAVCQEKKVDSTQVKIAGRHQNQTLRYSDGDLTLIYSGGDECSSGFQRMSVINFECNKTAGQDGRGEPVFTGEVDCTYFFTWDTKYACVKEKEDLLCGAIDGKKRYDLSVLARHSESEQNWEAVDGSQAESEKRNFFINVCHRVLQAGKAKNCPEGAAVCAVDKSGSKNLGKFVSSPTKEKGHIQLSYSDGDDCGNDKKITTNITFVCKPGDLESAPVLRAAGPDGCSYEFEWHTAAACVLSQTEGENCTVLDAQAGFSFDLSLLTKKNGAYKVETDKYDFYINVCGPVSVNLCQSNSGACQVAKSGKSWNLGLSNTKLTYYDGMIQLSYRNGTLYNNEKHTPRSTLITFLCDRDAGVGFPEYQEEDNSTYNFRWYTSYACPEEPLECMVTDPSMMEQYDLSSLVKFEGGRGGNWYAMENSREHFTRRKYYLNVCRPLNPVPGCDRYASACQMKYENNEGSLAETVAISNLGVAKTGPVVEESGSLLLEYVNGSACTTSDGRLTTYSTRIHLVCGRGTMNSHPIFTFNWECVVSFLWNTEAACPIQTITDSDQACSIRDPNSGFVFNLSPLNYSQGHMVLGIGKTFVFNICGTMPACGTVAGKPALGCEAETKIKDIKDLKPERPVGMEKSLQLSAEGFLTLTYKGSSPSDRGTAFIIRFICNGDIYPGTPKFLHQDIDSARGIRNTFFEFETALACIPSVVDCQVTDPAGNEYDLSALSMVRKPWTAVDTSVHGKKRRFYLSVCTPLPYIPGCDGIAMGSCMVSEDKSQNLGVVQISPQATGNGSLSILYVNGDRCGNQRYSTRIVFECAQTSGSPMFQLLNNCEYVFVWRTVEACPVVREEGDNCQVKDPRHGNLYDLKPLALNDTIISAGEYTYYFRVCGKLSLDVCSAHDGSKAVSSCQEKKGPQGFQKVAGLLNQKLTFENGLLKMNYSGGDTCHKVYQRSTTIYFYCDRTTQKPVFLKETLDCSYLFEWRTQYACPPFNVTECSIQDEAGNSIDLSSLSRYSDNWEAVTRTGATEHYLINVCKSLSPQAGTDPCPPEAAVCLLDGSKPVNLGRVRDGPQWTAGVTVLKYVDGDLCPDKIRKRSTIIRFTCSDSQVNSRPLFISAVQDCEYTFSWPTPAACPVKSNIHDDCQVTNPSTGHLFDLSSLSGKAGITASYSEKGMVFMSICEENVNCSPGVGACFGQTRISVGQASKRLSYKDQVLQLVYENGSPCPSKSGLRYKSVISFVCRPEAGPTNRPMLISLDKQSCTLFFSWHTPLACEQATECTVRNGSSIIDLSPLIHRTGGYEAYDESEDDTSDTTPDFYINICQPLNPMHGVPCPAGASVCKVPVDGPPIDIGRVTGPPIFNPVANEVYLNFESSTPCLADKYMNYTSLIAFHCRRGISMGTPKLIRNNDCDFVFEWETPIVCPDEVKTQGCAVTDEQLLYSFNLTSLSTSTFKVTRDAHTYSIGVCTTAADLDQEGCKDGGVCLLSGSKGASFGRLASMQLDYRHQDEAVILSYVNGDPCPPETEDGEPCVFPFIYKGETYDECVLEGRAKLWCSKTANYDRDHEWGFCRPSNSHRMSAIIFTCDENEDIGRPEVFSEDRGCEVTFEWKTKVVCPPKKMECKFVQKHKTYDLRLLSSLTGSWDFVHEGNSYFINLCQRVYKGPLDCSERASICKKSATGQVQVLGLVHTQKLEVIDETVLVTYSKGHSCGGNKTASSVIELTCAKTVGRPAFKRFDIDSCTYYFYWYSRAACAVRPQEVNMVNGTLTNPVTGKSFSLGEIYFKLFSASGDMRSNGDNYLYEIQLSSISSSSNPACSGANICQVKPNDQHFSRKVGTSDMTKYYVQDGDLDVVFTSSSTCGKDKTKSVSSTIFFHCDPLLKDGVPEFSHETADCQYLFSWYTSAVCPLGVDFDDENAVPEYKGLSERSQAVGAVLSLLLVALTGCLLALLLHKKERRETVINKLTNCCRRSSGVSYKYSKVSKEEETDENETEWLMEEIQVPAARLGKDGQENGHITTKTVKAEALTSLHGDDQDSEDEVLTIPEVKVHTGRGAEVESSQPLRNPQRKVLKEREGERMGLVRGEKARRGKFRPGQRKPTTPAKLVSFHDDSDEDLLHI

Consider `O[C@H]1[C@H](O)[C@@H](O)CN2CC[C@H](O)[C@H]12` [CA, castanospermine], for which, in assay [1] (Cricetulus griseus, CHO, 6 h, read-out: level of secretion relative to control cells), the activity at 520 µM lay within 5 to 15%. Regarding `CCN(CC)CCCC(C)Nc1ccnc2cc(Cl)ccc12` (stereo not drawn) [Chloroquine, Chloroquine diphosphate], the activity at 200 µM in assay [2] (Cricetulus griseus, CHO, 6 h chase, 10mM ammonium chloride, 200 µM chloroquine, 1 µM monensin, read-out: cleavage efficiency (proteolytic processing) relative to control values) was about 20%. On to `O=P(O)(O)OC1O[C@H](CO)[C@@H](O)[C@H](O)[C@@H]1O` (stereo partly drawn) [Mannose 1-phosphate, mannose 1-phosphate], for which the “times less effective than man6P at inhibiting binding of the TGF-β1 precursor” value in assay [3] (FIG. 37A) is recorded as “at least 1,000 times”.

Regarding `O[C@H]1[C@H]2[C@H](O)CCCN2C[C@H]1O` [SW, swainsonine], the activation at 230 µM in assay [1] (Cricetulus griseus, CHO, 6 h, read-out: increase in levels of secreted recombinant proteins) was about 30%.

`OC[C@H]1NC[C@@H](O)[C@@H](O)[C@@H]1O` [dMM, 1-deoxymannojirimycin]: in assay [1] (Cricetulus griseus, CHO, 6 h chase, 0.23 mM SW, 4 mM dMM, read-out: increase in levels of secreted recombinant proteins), the activation at 4000 µM is about 30%. Take `OC[C@H]1NC[C@H](O)[C@@H](O)[C@@H]1O` [dN, 1-deoxynojirimycin]: the activity at 4000 µM in assay [1] (Cricetulus griseus, CHO, 6 h chase, 6 µM TU, 0.52 mM CA, 4 mM dN, read-out: level of secretion relative to control cells) is 5 to 15%. Turning to `O=P(O)(O)OC[C@H]1OC(O)[C@@H](O)[C@@H](O)[C@@H]1O` (stereo partly drawn) [mannose 6-phosphate], the inhibition (commonly the drop in the measured response relative to a control, in per cent) at 50 µM in assay [4] (50µM competitor, read-out: inhibition of 125I-labeled TGF-β1 precursor binding to purified receptor) is 90%. Moreover, the IC50 was found to be 8 µM in assay [4] (read-out: half-maximal inhibition of binding to the isolated receptor); 10 µM in assay [3] (FIG. 37A, read-out: half-maximal inhibition of TGF-β1 precursor binding to transfected CHO cells); 10 µM in assay [3] (read-out: half-maximal inhibition of rTGF-β1 precursor binding to transfected CHO cells). Further, the inhibition at 3000 µM in assay [5] (control adipocytes) stood at 65%; in assay [5] (insulin-treated adipocytes) it was 81%. Turning to `CC[C@@]1([C@@H]2O[C@@H]([C@H]3O[C@@](O)(CO)[C@H](C)C[C@@H]3C)C[C@@H]2C)CC[C@H]([C@]2(C)CC[C@]3(C[C@H](O)[C@@H](C)[C@@H]([C@@H](C)[C@@H](OC)[C@H](C)C(=O)O)O3)O2)O1` [monensin], in assay [2], the “cleavage efficiency (proteolytic processing) relative to control values” is on record as about 20%. ammonium chloride: the “cleavage efficiency (proteolytic processing) relative to control values” in assay [2] (6 h chase, 10mM ammonium chloride, 200 µM chloroquine, 1 µM monensin) was “about 70%”. Turning to tunicamycin, the “level of secretion relative to control cells” value in assay [1] (6 h chase, 6 µM TU, 0.52 mM CA, 4 mM dN) was 5-15%.
